Test [1] is filed under the species Rattus norvegicus. The test is described as follows: Antihyperglycemic activity in streptozotocin induced diabetic model of Sprague-Dawley albino rat assessed as reduction in blood glucose by AUC method. On the set-up: scale not given: the % may be the effect or the level left. It counts as functional.
Test [2] is filed under the species Rattus norvegicus. Nature of the test: Antihyperglycemic activity in sucrose loaded model of Sprague-Dawley albino rat assessed as reduction in blood glucose by AUC method. The class given is functional. The arrangement: scale not given: the % may be the effect or the level left.

Regarding `O=C(/C=C/c1ccc(OCC(O)CN2CCCCC2)cc1)c1ccccc1` (stereo unspecified), the Activity in test [1] stood at 19.3%; in test [2], 22.3%.
With `CC(C)CNCC(O)COc1ccc(/C=C/C(=O)c2ccccc2)cc1` (stereo unspecified), the Activity in test [2] was determined as 6.5%.
Turning to `O=C(/C=C/c1cccc(OCC(O)CN2CCN(c3ccccc3Cl)CC2)c1)c1ccccc1` (stereo unspecified), the Activity in test [1] is given as 8.3%; in test [2], 19%.
The corresponding values for `CC(C)(C)NCC(O)COc1ccc(/C=C/C(=O)c2ccccc2)cc1` (stereo unspecified) are 10.3% and 29%.
Take `O=C(/C=C/c1cccc(OCC(O)CN2CCCCC2)c1)c1ccccc1` (stereo unspecified): the Activity in test [1] came out at 9.4%; in test [2], 11.3%.
In the case of `CC(C)CNCC(O)COc1cccc(/C=C/C(=O)c2ccccc2)c1` (stereo unspecified), the Activity in test [2] turned out to be 14.5%.
As for `O=C(/C=C/c1cccc(OCC(O)CN2CCN(c3ccccc3)CC2)c1)c1ccccc1` (stereo unspecified), the Activity came to 10.4% in test [1] and 22.9% in test [2].
The corresponding values for `O=C(/C=C/c1ccc(OCC(O)CN2CCN(c3ccccc3)CC2)cc1)c1ccccc1` (stereo unspecified) are 3% and 31.1%.
In the same order, the values of `CN1CCN(CC(O)COc2cccc(/C=C/C(=O)c3ccccc3)c2)CC1` (stereo unspecified) are 20.1% and 20.4%.
The corresponding values for `CC(C)N(CC(O)COc1cccc(/C=C/C(=O)c2ccccc2)c1)C(C)C` (stereo unspecified) are 22.6% and 26.7%.
`CC(C)N(CC(O)COc1ccc(/C=C/C(=O)c2ccccc2)cc1)C(C)C` (stereo unspecified): in test [2], the Activity was 7.9%.
In the case of `CC(C)(C)NCC(O)COc1cccc(/C=C/C(=O)c2ccccc2)c1` (stereo unspecified), the Activity was found to be 10.6% in test [1] and 21.7% in test [2].
The corresponding values for `CCN(CC)CCCNCC(O)COc1cccc(/C=C/C(=O)c2ccccc2)c1` (stereo unspecified) are 8.3% and 20.8%.
As for `COc1ccc(Cl)cc1C(=O)NCCc1ccc(S(=O)(=O)NC(=O)NC2CCCCC2)cc1` [GLYBURIDE], the Activity in test [1] is 29%; in test [2] it was 33.7%.
With `CN(C)C(=N)NC(=N)N` [METFORMIN], the Activity in test [2] was 12.9%.

The record behind these values is ChEMBL document CHEMBL1138412, “Chalcone based aryloxypropanolamines as potential antihyperglycemic agents” (2007).
